# According to paper PMC9740098, “In Vitro Evaluation of the Interaction of Seven Biologically Active Components in Anemarrhenae rhizoma with P-gp” (Molecules, 2022):
# Tests used:
# P-gp [1] = molecular target: T1, P-gp (Homo sapiens, UniProt P08183); experiment: Bidirectional transport assay of single components (substrate assay), with or without verapamil; type: in vitro ADME; conditions: dog; for efflux ratio at 2 h: n = 3, read-out: ER (efflux ratio); for Papp A→B at 2 h / Papp B→A at 2 h: n = 3
# Experimental: (§1) Before experiments, cell monolayers were washed twice with HBSS and equilibrated with HBSS for 30 min at 37 °C. HBSS containing different components was added to either the apical or basolateral chamber (donor chamber), and blank HBSS was added to the opposite chamber (receiver chamber). The total volume is 0.5 mL in the apical chamber and 1.5 mL in the basolateral chamber. Aliquots (100 μL) were taken from the acceptor chamber every 30 min for 2 h, and the same volume of HBSS was replenished. The transport samples were prepared using solid-phase extraction (SPE). Bond Elut C18 cartridge (Agilent, Santa Clara, CA, USA, 100 mg, 1 mL, 100/pk) was preconditioned with 1 mL methanol and 1 mL deionized water. Both 100 μL of bidirectional assay sample solution and 20 μL of IS solution was loaded onto the SPE cartridge, and the eluent that passed through the SPE cartridge was discarded. After washing with 1 mL of deionized water, 1 mL of the eluent solvent was introduced into the SPE cartridge for collection. The target solutions were concentrated by nitrogen blowing and re-dissolved. The amount of seven constituents of AR was determined by LC-MS/MS. The apparent permeability (Papp) of each substrate across MDCK-MDR1 cell monolayers in both the basolateral to apical (B > A) and apical to basolateral (A > B) directions were calculated using the following formula: […]
# P-gp [2] = molecular target: T1, P-gp; experiment: Bidirectional transport assay of AR extract (seven components quantified); type: in vitro ADME; conditions: dog; for Papp A→B at 2 h / Papp B→A at 2 h: component given as AR extract (10 mg/mL in HBSS)
# Experimental: as §1, with “The HBSS containing 10 mg/mL AR extract was prepared. Before” for “Before”, “AR extract” for “different components”
# P-gp [3] = molecular target: T1, P-gp; experiment: Bidirectional transport assay of Rh-123 (P-gp inhibition); type: cell-based; conditions: for Papp (AP-BL) of rhodamine-123 in combination with the compound / Papp (BL-AP) of rhodamine-123 in combination with the compound: dog, MDCK-MDR1, 120 min
# Experimental: The HBSS containing 10 μM Rh-123 and different AR components as described in the above Section 4.6.1 were prepared. Additionally, The HBSS containing 10 μM Rh-123 and 0.625 μM valspodar were prepared as the positive control. Before experiments, cell monolayers were washed twice with HBSS and equilibrated with HBSS for 30 min at 37 °C. HBSS containing AR component and Rh-123 was added to either the apical or basolateral chamber (donor chamber), and HBSS containing AR component was added to the opposite chamber (receiver chamber). The total volume is 0.5 mL in the apical chamber and 1.5 mL in the basolateral chamber. Aliquots (100 μL) were taken from the acceptor chamber at 15 min, 30 min, 60 min, 90 min, and 120 min, and the same volume of blank HBSS was replenished. The positive control group was treated as above. The apparent permeability (Papp) of each substrate across MDCK-MDR1 cell monolayers in both the basolateral to apical (B > A) and apical to basolateral (A > B) directions were calculated using the following formula: […]
# [4] = system: MDCK-MDR1 monolayer cell model; experiment: Permeability assay validating the MDCK-MDR1 monolayer cell model; type: in vitro ADME; conditions: in 120 min
# Description: In this study, an MDCK-MDR1 monolayer cell model was established.
# [5] = MDCK-MDR1, Single Component Group, Papp(BL-AP)/Papp(AP-BL)
# [6] = MDCK-MDR1, with verapamil (concentration not stated), Single Component + Verapamil Group
# [7] = Single Component Group, MDCK-MDR1, 2.0 µM TAIII, 1.6 μM TBII, 4.7 μM MGF, 4.7 μM IMGF, 3.4 μM NMGF, 1.2 μM SSG, 3.9 μM BHI
# [8] = Single Component Group, MDCK-MDR1
# [9] = MDCK-MDR1, AR Extract Group, n = 3, read-out: ER (efflux ratio)
# [10] = MDCK-MDR1, Single Component + Verapamil Group
# T1 sequence (P08183 whole entry): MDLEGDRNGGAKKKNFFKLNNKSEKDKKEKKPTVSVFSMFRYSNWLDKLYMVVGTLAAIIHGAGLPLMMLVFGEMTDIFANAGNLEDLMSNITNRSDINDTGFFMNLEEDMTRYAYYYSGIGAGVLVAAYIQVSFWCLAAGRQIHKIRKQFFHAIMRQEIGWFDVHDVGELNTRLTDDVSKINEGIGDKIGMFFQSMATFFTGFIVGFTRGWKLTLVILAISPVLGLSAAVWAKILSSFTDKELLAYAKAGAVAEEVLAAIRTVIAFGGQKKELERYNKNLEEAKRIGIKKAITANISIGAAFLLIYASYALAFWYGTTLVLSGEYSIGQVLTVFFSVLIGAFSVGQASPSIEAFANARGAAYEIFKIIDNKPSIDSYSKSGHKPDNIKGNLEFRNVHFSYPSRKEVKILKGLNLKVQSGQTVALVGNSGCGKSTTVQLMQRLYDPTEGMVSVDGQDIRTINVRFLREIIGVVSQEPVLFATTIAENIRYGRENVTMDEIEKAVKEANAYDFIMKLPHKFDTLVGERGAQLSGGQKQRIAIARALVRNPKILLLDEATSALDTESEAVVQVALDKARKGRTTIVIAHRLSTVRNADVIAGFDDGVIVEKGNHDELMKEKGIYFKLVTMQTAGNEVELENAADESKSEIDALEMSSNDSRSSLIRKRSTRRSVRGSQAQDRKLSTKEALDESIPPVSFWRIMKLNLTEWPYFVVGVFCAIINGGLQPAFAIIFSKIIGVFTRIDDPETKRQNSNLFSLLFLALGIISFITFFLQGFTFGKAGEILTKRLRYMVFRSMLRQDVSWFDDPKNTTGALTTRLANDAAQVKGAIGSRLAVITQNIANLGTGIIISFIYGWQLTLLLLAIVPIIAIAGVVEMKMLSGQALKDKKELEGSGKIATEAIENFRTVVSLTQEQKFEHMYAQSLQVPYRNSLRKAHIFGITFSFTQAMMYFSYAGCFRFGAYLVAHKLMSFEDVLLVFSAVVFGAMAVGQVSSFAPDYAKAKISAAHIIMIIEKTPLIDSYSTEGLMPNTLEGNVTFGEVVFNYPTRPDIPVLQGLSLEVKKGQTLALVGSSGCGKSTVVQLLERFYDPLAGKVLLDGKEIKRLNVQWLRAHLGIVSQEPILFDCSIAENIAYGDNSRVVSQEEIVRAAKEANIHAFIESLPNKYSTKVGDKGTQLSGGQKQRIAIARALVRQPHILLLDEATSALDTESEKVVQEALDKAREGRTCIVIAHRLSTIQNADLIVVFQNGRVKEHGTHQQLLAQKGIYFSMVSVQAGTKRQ
SMILES,efflux ratio at 2 h (P-gp [1]; [5]),efflux ratio at 2 h (P-gp [1]; [6]),Papp A→B at 2 h (P-gp [1]; [7]),Papp B→A at 2 h (P-gp [1]; [8]),"Papp A→B at 2 h (P-gp [2]; MDCK-MDR1, n = 3)","Papp B→A at 2 h (P-gp [2]; MDCK-MDR1, n = 3)",Papp (AP-BL) of rhodamine-123 in combination with the compound (P-gp [3]),Papp (BL-AP) of rhodamine-123 in combination with the compound (P-gp [3]),efflux ratio at 2 h (P-gp [2]; [9]),Papp A→B at 2 h (P-gp [1]; [10]),Papp B→A at 2 h (P-gp [1]; [10]),efflux ratio at 2 h (P-gp [1]; [10]),"Papp A→B at 2 h (P-gp [1]; MDCK-MDR1, Single Component Group, 2.0 µM TAIII, 1.6 μM TBII, 4.7 μM MGF, 4.7 μM IMGF, 3.4 μM NMGF, 1.2 μM SSG, 3.9 μM BHI)","Papp B→A at 2 h (P-gp [1]; MDCK-MDR1, Single Component Group)","efflux ratio at 2 h (P-gp [2]; AR Extract Group, MDCK-MDR1, n = 3, read-out: ER (efflux ratio))","ER (efflux ratio) of rhodamine-123 in combination with the compound (P-gp [3]; 10 μM Rh-123 with AR component or 0.625 μM valspodar, control ER 2.46, MDCK-MDR1, n = 3)",Pe value [4]
"COc1ccc(-c2oc3c(CC=C(C)C)c(O)cc(O)c3c(=O)c2O[C@@H]2O[C@@H](C)[C@H](O)[C@@H](O)[C@H]2O)cc1 [BHI, baohuoside I]",2.26,1.08,0.24 ×10⁻⁶ cm/s,0.72 ×10⁻⁶ cm/s,0.155 ×10⁻⁶ cm/s,0.298 ×10⁻⁶ cm/s,1.73 ×10⁻⁶ cm/s,2.53 ×10⁻⁶ cm/s,,,,,,,,,
"O=c1c2cc(O)c(O)cc2oc2c([C@@H]3O[C@H](CO)[C@@H](O)[C@H](O)[C@H]3O)c(O)cc(O)c12 [IMGF, isomangiferin]",< 2,0.55,0.0651 ×10⁻⁶ cm/s,0.0702 ×10⁻⁶ cm/s,0.0546 ×10⁻⁶ cm/s,0.0495 ×10⁻⁶ cm/s,,,0.91,,,,,,,,
"O=c1c2cc(O)c(O)cc2oc2cc(O)c([C@@H]3O[C@H](CO)[C@@H](O)[C@H](O)[C@H]3O)c(O)c12 [MGF, mangiferin]",> 2,0.53,0.606 ×10⁻⁶ cm/s,1.35 ×10⁻⁶ cm/s,0.586 ×10⁻⁶ cm/s,0.283 ×10⁻⁶ cm/s,1.88 ×10⁻⁶ cm/s,2.36 ×10⁻⁶ cm/s,0.48,,,,,,,,
"O=c1c2cc(O[C@@H]3O[C@H](CO)[C@@H](O)[C@H](O)[C@H]3O)c(O)cc2oc2cc(O)c([C@@H]3O[C@H](CO)[C@@H](O)[C@H](O)[C@H]3O)c(O)c12 [NMGF, neomangiferin]",< 2,0.52,0.121 ×10⁻⁶ cm/s,0.137 ×10⁻⁶ cm/s,0.0976 ×10⁻⁶ cm/s,0.0654 ×10⁻⁶ cm/s,,,0.67,,,,,,,,
"C[C@H]1CC[C@@]2(OC1)O[C@H]1C[C@H]3[C@@H]4CC[C@@H]5C[C@@H](O)CC[C@]5(C)[C@H]4CC[C@]3(C)[C@H]1[C@@H]2C [SSG, sarsasapogenin]",< 2,,,,0.0398 ×10⁻⁶ cm/s,0.0347 ×10⁻⁶ cm/s,,,,0.0904 ×10⁻⁶ cm/s,0.0374 ×10⁻⁶ cm/s,0.41,0.0374 ×10⁻⁶ cm/s,0.0566 ×10⁻⁶ cm/s,0.87,no statistical difference,
"C[C@H]1CC[C@@]2(OC1)O[C@H]1C[C@H]3[C@@H]4CC[C@@H]5C[C@@H](O[C@@H]6O[C@H](CO)[C@H](O)[C@H](O)[C@H]6O[C@@H]6O[C@H](CO)[C@@H](O)[C@H](O)[C@H]6O)CC[C@]5(C)[C@H]4CC[C@]3(C)[C@H]1[C@@H]2C [TAIII, timosaponin AIII]",> 2,0.88,0.955 ×10⁻⁶ cm/s,2.16 ×10⁻⁶ cm/s,3.05 ×10⁻⁶ cm/s,1.94 ×10⁻⁶ cm/s,1.78 ×10⁻⁶ cm/s,2.17 ×10⁻⁶ cm/s,0.63,,,,,,,,
"C[C@@H](CC[C@@]1(O)O[C@H]2C[C@H]3[C@@H]4CC[C@@H]5C[C@@H](O[C@@H]6O[C@H](CO)[C@H](O)[C@H](O)[C@H]6O[C@@H]6O[C@H](CO)[C@@H](O)[C@H](O)[C@H]6O)CC[C@]5(C)[C@H]4CC[C@]3(C)[C@H]2[C@@H]1C)CO[C@@H]1O[C@H](CO)[C@@H](O)[C@H](O)[C@H]1O [TBII, timosaponin BII]",> 2,0.65,0.719 ×10⁻⁶ cm/s,1.67 ×10⁻⁶ cm/s,1.81 ×10⁻⁶ cm/s,1.5 ×10⁻⁶ cm/s,1.85 ×10⁻⁶ cm/s,2.34 ×10⁻⁶ cm/s,0.83,,,,,,,,
O=C([O-])c1ccccc1-c1c2ccc(=O)cc-2oc2cc([O-])ccc12.[Na+].[Na+] [fluorescein sodium],,,,,,,,,,,,,,,,,0.78 ± 0.02 × 10^−6 cm/s
